{"source": "patent US8580794B2", "about": "(AbbVie Inc., priority 2009, dated 2013)"}
{"biological_target": "GST-Bc1-2 (Homo sapiens, UniProt P10415)", "sequence (P10415 whole entry)": "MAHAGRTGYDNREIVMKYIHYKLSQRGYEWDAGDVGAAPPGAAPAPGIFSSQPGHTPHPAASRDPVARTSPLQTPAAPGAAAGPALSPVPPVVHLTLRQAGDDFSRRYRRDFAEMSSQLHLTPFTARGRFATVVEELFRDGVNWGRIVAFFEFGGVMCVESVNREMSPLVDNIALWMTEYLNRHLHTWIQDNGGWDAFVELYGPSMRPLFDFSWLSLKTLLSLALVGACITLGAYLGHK", "assay": "Time Resolved-Fluorescence Resonance Energy Transfer (TR-FRET) Bcl-2 binding assay with F-Bak peptide probe", "conditions": "GST-Bcl-2 1 nM, F-Bak probe 100 nM, Tb-anti-GST 1 nM; '<' = below limit of detection; read-out: TR-FRET Bcl-2 Binding Ki", "units": {"Ki": "nM"}, "method": "The samples are then mixed on a shaker for 1 minute and incubated for an additional 3 hours at room temperature. For each assay, the probe/antibody and protein/probe/antibody were included on each assay plate as negative and positive controls, respectively.\nThe samples were then mixed on a shaker for 1 minute and incubated for an additional 3 hours at room temperature. For each assay, the probe/antibody and protein/probe/antibody were included on each assay plate as negative and positive controls, respectively."}
{"smiles": "COCC(=O)N1CCC(COc2ccc(S(=O)(=O)NC(=O)c3ccc(N4CCN(CC5=C(c6ccc(Cl)cc6)CC(C)(C)CC5)CC4)cc3Oc3cnc4[nH]ccc4c3)cc2Cl)CC1", "note": "[Example 294, N-[(3-chloro-4-{[1-(methoxyacetyl)piperidin-4-yl]methoxy}phenyl)sulfonyl]-4-(4-{[2-(4-chlorophenyl)-4,4-dimethylcyclohex-1-en-1-yl]methyl}piperazin-1-yl)-2-(1H-pyrrolo[2,3-b]pyridin-5-yloxy)benzamide]", "Ki": 0.046}
{"smiles": "CN(C)CC(=O)N1CCC(COc2ccc(S(=O)(=O)NC(=O)c3ccc(N4CCN(CC5=C(c6ccc(Cl)cc6)CC(C)(C)CC5)CC4)cc3Oc3cnc4[nH]ccc4c3)cc2Cl)CC1", "note": "[Example 295, N-[(3-chloro-4-{[1-(N,N-dimethylglycyl)piperidin-4-yl]methoxy}phenyl)sulfonyl]-4-(4-{[2-(4-chlorophenyl)-4,4-dimethylcyclohex-1-en-1-yl]methyl}piperazin-1-yl)-2-(1H-pyrrolo[2,3-b]pyridin-5-yloxy)benzamide]", "Ki": "< 0.01"}
{"smiles": "CC1(C)CCC(CC2CCN(c3ccc(C(=O)NS(=O)(=O)c4ccc(NCC5CCOCC5)c([N+](=O)[O-])c4)c(Oc4cnc5[nH]ccc5c4)c3)CC2)C(c2ccc(Cl)cc2)C1", "note": "(centres unmarked) [Example 296, 4-(4-{[2-(4-chlorophenyl)-4,4-dimethylcyclohexyl]methyl}piperidin-1-yl)-N-({3-nitro-4-[(tetrahydro-2H-pyran-4-ylmethyl)amino]phenyl}sulfonyl)-2-(1H-pyrrolo[2,3-b]pyridin-5-yloxy)benzamide]", "Ki": 0.512}
{"smiles": "CC1(C)CCC(CN2CCN(c3ccc(C(=O)NS(=O)(=O)c4cnc(OCC5CCOCC5)c(C(F)(F)F)c4)c(Oc4cnc5[nH]ccc5c4)c3)CC2)=C(c2ccc(Cl)cc2)C1", "note": "[Example 297, 4-(4-{[2-(4-chlorophenyl)-4,4-dimethylcyclohex-1-en-1-yl]methyl}piperazin-1-yl)-2-(1H-pyrrolo[2,3-b]pyridin-5-yloxy)-N-{[6-(tetrahydro-2H-pyran-4-ylmethoxy)-5-(trifluoromethyl)pyridin-3-yl]sulfonyl}benzamide]", "Ki": 0.174}
{"smiles": "CC1(C)CCC(CN2CCN(c3ccc(C(=O)NS(=O)(=O)c4cnc(OC[C@H]5CC[C@H](O)CC5)c(Cl)c4)c(Oc4cnc5[nH]ccc5c4)c3)CC2)=C(c2ccc(Cl)cc2)C1", "note": "[Example 298, N-({5-chloro-6-[(trans-4-hydroxycyclohexyl)methoxy]pyridin-3-yl}sulfonyl)-4-(4-{[2-(4-chlorophenyl)-4,4-dimethylcyclohex-1-en-1-yl]methyl}piperazin-1-yl)-2-(1H-pyrrolo[2,3-b]pyridin-5-yloxy)benzamide]", "Ki": "< 0.01"}
{"smiles": "CC1(C)CCC(CN2CCN(c3ccc(C(=O)NS(=O)(=O)c4ccc(OCC5(F)CCOCC5)c(C#N)c4)c(Oc4cnc5[nH]ccc5c4)c3)CC2)=C(c2ccc(Cl)cc2)C1", "note": "[Example 299, 4-(4-{[2-(4-chlorophenyl)-4,4-dimethylcyclohex-1-en-1-yl]methyl}piperazin-1-yl)-N-({3-cyano-4-[(4-fluorotetrahydro-2H-pyran-4-yl)methoxy]phenyl}sulfonyl)-2-(1H-pyrrolo[2,3-b]pyridin-5-yloxy)benzamide]", "Ki": 0.039}
{"smiles": "CC1(C)CCC(CC2CCN(c3ccc(C(=O)NS(=O)(=O)c4cnc(OCC5(O)CCC(F)(F)CC5)c(Cl)c4)c(Oc4cnc5[nH]ccc5c4)c3)CC2)=C(c2ccc(Cl)cc2)C1", "note": "[Example 302, N-({5-chloro-6-[(4,4-difluoro-1-hydroxycyclohexyl)methoxy]pyridin-3-yl}sulfonyl)-4-(4-{[2-(4-chlorophenyl)-4,4-dimethylcyclohex-1-en-1-yl]methyl}piperidin-1-yl)-2-(1H-pyrrolo[2,3-b]pyridin-5-yloxy)benzamide]", "Ki": 0.332}
{"smiles": "CC1(C)CCC(CN2CCN(c3ccc(C(=O)NS(=O)(=O)c4ccc(OC[C@H]5CC[C@H](N6CCOCC6)CC5)c(Cl)c4)c(Oc4cnc5[nH]ccc5c4)c3)CC2)=C(c2ccc(Cl)cc2)C1", "note": "[Example 303, N-[(3-chloro-4-{[trans-4-(morpholin-4-yl)cyclohexyl]methoxy}phenyl)sulfonyl]-4-(4-{[2-(4-chlorophenyl)-4,4-dimethylcyclohex-1-en-1-yl]methyl}piperazin-1-yl)-2-(1H-pyrrolo[2,3-b]pyridin-5-yloxy)benzamide]", "Ki": 0.044}
{"smiles": "CC1(C)CCC(CN2CCN(c3ccc(C(=O)NS(=O)(=O)c4ccc(OC[C@H]5CC[C@H](O)CC5)c(Cl)c4)c(Oc4cnc5[nH]ccc5c4)c3)CC2)=C(c2ccc(Cl)cc2)C1", "note": "[Example 305, N-({3-chloro-4-[(trans-4-hydroxycyclohexyl)methoxy]phenyl}sulfonyl)-4-(4-{[2-(4-chlorophenyl)-4,4-dimethylcyclohex-1-en-1-yl]methyl}piperazin-1-yl)-2-(1H-pyrrolo[2,3-b]pyridin-5-yloxy)benzamide]", "Ki": 0.033}
{"smiles": "CC1(C)CCC(CN2CCN(c3ccc(C(=O)NS(=O)(=O)c4ccc(NCC5CCOCC5)c(Cl)c4)c(Oc4cnc5[nH]ccc5c4)c3)CC2)=C(c2ccc(Cl)cc2)C1", "note": "[Example 306, 4-(4-{[2-(4-chlorophenyl)-4,4-dimethylcyclohex-1-en-1-yl]methyl}piperazin-1-yl)-N-({3-chloro-4-[(tetrahydro-2H-pyran-4-ylmethyl)amino]phenyl}sulfonyl)-2-(1H-pyrrolo[2,3-b]pyridin-5-yloxy)benzamide]", "Ki": 2.07}
{"smiles": "CC1(C)CCC(CN2CCN(c3ccc(C(=O)NS(=O)(=O)c4ccc(OCC5(F)CCOCC5)c(C(F)(F)F)c4)c(Oc4cnc5[nH]ccc5c4)c3)CC2)=C(c2ccc(Cl)cc2)C1", "note": "[Example 307, 4-(4-{[2-(4-chlorophenyl)-4,4-dimethylcyclohex-1-en-1-yl]methyl}piperazin-1-yl)-N-({4-[(4-fluorotetrahydro-2H-pyran-4-yl)methoxy]-3-(trifluoromethyl)phenyl}sulfonyl)-2-(1H-pyrrolo[2,3-b]pyridin-5-yloxy)benzamide]", "Ki": 0.13}
{"smiles": "CC1(C)CCC(CN2CCN(c3ccc(C(=O)NS(=O)(=O)c4ccc(NCCCN(CC(F)(F)F)C5CC5)c([N+](=O)[O-])c4)c(Oc4cnc5[nH]ccc5c4)c3)CC2)=C(c2ccc(Cl)cc2)C1", "note": "[Example 308, 4-(4-{[2-(4-chlorophenyl)-4,4-dimethylcyclohex-1-en-1-yl]methyl}piperazin-1-yl)-N-{[4-({3-[cyclopropyl(2,2,2-trifluoroethyl)amino]propyl}amino)-3-nitrophenyl]sulfonyl}-2-(1H-pyrrolo[2,3-b]pyridin-5-yloxy)benzamide]", "Ki": 0.141}
{"smiles": "CC1(C)CCC(CN2CCN(c3ccc(C(=O)NS(=O)(=O)c4ccc(OCC5CCN(C6COC6)CC5)c(Cl)c4)c(Oc4cnc5[nH]ccc5c4)c3)CC2)=C(c2ccc(Cl)cc2)C1", "note": "[Example 309, N-[(3-chloro-4-{[1-(oxetan-3-yl)piperidin-4-yl]methoxy}phenyl)sulfonyl]-4-(4-{[2-(4-chlorophenyl)-4,4-dimethylcyclohex-1-en-1-yl]methyl}piperazin-1-yl)-2-(1H-pyrrolo[2,3-b]pyridin-5-yloxy)benzamide]", "Ki": 0.023}
{"smiles": "CC1(C)CCC(CN2CCN(c3ccc(C(=O)NS(=O)(=O)c4cc(F)c(OCC5(F)CCOCC5)c(F)c4)c(Oc4cnc5[nH]ccc5c4)c3)CC2)=C(c2ccc(Cl)cc2)C1", "note": "[Example 310, 4-(4-{[2-(4-chlorophenyl)-4,4-dimethylcyclohex-1-en-1-yl]methyl}piperazin-1-yl)-N-({3,5-difluoro-4-[(4-fluorotetrahydro-2H-pyran-4-yl)methoxy]phenyl}sulfonyl)-2-(1H-pyrrolo[2,3-b]pyridin-5-yloxy)benzamide]", "Ki": 0.165}
